In patent publication US20120183976A1, “METHODS OF ASSESSING ACTIVITY OF A POLYSACCHARIDE COMPOSITION” (priority 2009, published 2012):

System: C170HM2 human colorectal tumor cells
Test: C170HM2 colon cancer metastasis to the liver model
Assay type: in vivo, MF1 nude (nu/nu) athymic mice
Conditions: 25 mg/kg i.v. cycled on days 1, 3, 5, 7
Experimental: Liver metastasis was initiated by intraperitoneal injection of C170HM2 human colorectal tumor cells into male MF1 nude (nu/nu) athymic mice. 5FU/leucovorin was used as a positive control.
C170HM2 cells were maintained in vitro in RPMI culture medium (Sigma) containing 10% (v/v) heat inactivated fetal bovine serum and 2 mM L-glutamine at 37° C. in 5% CO2 and humidified conditions. Cells from sub-confluent monolayers were harvested with 0.025% EDTA, washed in culture medium and re-suspended in sterile phosphate buffered saline, pH 7.4 (PBS) for in vivo administration. 1.5×10^6 cells in a volume of 1 ml were injected intraperitoneally into 65 mice, and the mice were allocated into treatment groups as below.
Group 1: n=10 Vehicle control Group 2: n=10 25 mg/kg 5FU/leucovorin i.v. cycled on days 1, 3, 5, 7 Group 3: n=10 5 mg/kg compound 1 (Dalteparin) s.c. once daily Group 4: n=10 5 mg/kg compound 2 (M402) s.c. once daily Group 5: n=10 15 mg/kg compound 2 s.c. once daily Group 6: n=10 30 mg/kg compound 2 s.c. once daily Group 7: n=5 Untreated
Treatment was initiated on day 1 following cell injection and continued until day 35 or until the clinical condition of the animal required termination. Groups 5 and 6 missed one dose on day 5. […]
The study was terminated on day 35, and the tumors in the liver were excised and weighed. The numbers of lung nodules are also counted.

5FU/leucovorin
Mean tumor area (day 35): 13.12 mm^2
Mean tumor weight (liver tumors day 35): 0.037 g
